Source: patent US20250170149A1, “NEUROACTIVE STEROIDS FOR TREATMENT OF GASTROINTESTINAL DISEASES OR CONDITIONS” (Sage Therapeutics, Inc., priority 2022, published 2025)
“Also recorded” adds a separate entry of the source. Read-outs that look alike come from different tables or passages of the source.

How the values were obtained:
[1] = test system: patients with major depressive disorder (MDD); settings: cited from earlier work; for rates of gastrointestinal adverse reactions compared to placebo, words: 15 most commonly used antidepressants in MDD, Oliva V, et al. 2021; for gastrointestinal tolerability among antidepressants, words: Oliva V. et al. 2021 meta-analysis in MDD
[2] = test system: participants with major depressive disorder (MDD); experiment: Treatment-emergent adverse events (TEAEs) and serious AEs in study NCT04476030, safety set; type: in vivo, human; settings: one patient, about 1 hour after zuranolone 50 mg on Day 7; resolved within 22 minutes
Description: A randomized, double-blind, parallel-group, active/placebo-controlled study (NCT04476030) in participants with major depressive disorder (MDD) was conducted. The study evaluated the efficacy and safety of zuranolone 50 mg co-initiated with standard-of-care (SOC) antidepressant therapies (ADTs) (zuranolone+ADT) vs placebo co-initiated with SOC ADT (placebo+ADT) in adults with MDD. Patients were randomized 1:1 to once-daily, blinded zuranolone +ADT or placebo+ADT for 14 days then continued open-label SOC ADT for 28 more days.
An AE could therefore be any unfavorable and unintended sign (including an abnormal laboratory finding), symptom or disease temporally associated with the use of a medicinal (investigational) product whether or not related to the medicinal (investigational) product. In clinical studies, an AE could include an undesirable medical condition occurring at any time, including baseline or washout periods, even if no study treatment had been administered.
A treatment emergent adverse event (TEAE) was defined as an AE with onset after the start of investigational product (IP), or any worsening of a pre-existing medical condition/AE with onset after the start of IP and throughout the study. The term IP included any Sage IP, a comparator, or a placebo administered in a clinical study. […]

## COc1ccc2cccc(CCNC(C)=O)c2c1 [agomelatine]
[1]
  rates of gastrointestinal adverse reactions compared to placebo, words: higher rates of gastrointestinal adverse reactions

## CC(NC(C)(C)C)C(=O)c1cccc(Cl)c1 (stereo not drawn) [bupropion]
[1]
  rates of gastrointestinal adverse reactions compared to placebo, words: higher rates of gastrointestinal adverse reactions

## CN(C)CCCC1(c2ccc(F)cc2)OCc2cc(C#N)ccc21 (stereo not drawn) [citalopram]
[1]
  rates of gastrointestinal adverse reactions compared to placebo, words: higher rates of gastrointestinal adverse reactions

## CN(C)CC(c1ccc(O)cc1)C1(O)CCCCC1 (stereo not drawn) [desvenlafaxine]
[1]
  rates of gastrointestinal adverse reactions compared to placebo, words: higher rates of gastrointestinal adverse reactions

## CNCC[C@H](Oc1cccc2ccccc12)c1cccs1 [duloxetine]
[1]
  rates of gastrointestinal adverse reactions compared to placebo, words: higher rates of gastrointestinal adverse reactions

## CN(C)CCC[C@@]1(c2ccc(F)cc2)OCc2cc(C#N)ccc21 [escitalopram]
[1]
  rates of gastrointestinal adverse reactions compared to placebo, words: higher rates of gastrointestinal adverse reactions
  gastrointestinal tolerability among antidepressants, words: least tolerated antidepressants on the gastrointestinal tract
[1]; listed as Escitalopram
  gastrointestinal tolerability among antidepressants, words: least tolerated antidepressants on the GI tract

## CNCCC(Oc1ccc(C(F)(F)F)cc1)c1ccccc1 (stereo not drawn) [fluoxetine]
[1]
  rates of gastrointestinal adverse reactions compared to placebo, words: higher rates of gastrointestinal adverse reactions

## COCCCC/C(=N\OCCN)c1ccc(C(F)(F)F)cc1 [fluvoxamine]
[1]
  rates of gastrointestinal adverse reactions compared to placebo, words: higher rates of gastrointestinal adverse reactions

## CCN(CC)C(=O)[C@@]1(c2ccccc2)C[C@H]1CN [levomilnacipran]
[1]
  rates of gastrointestinal adverse reactions compared to placebo, words: higher rates of gastrointestinal adverse reactions

## CN1CCN2c3ncccc3Cc3ccccc3C2C1 (stereo not drawn) [mirtazapine]
[1]
  rates of gastrointestinal adverse reactions compared to placebo, words: higher rates of gastrointestinal adverse reactions

## Fc1ccc([C@@H]2CCNC[C@H]2COc2ccc3c(c2)OCO3)cc1 [paroxetine]
[1]
  rates of gastrointestinal adverse reactions compared to placebo, words: higher rates of gastrointestinal adverse reactions

## CCOc1ccccc1OC(c1ccccc1)C1CNCCO1 (stereo not drawn) [reboxetine]
[1]
  rates of gastrointestinal adverse reactions compared to placebo, words: higher rates of gastrointestinal adverse reactions

## CN[C@H]1CC[C@@H](c2ccc(Cl)c(Cl)c2)c2ccccc21 [sertraline]
[1]
  rates of gastrointestinal adverse reactions compared to placebo, words: higher rates of gastrointestinal adverse reactions
  gastrointestinal tolerability among antidepressants, words: least tolerated antidepressants on the gastrointestinal tract; also recorded: least tolerated antidepressants on the GI tract
[1]; compared to other SSRIs and venlafaxine, Gartlehner G, et al. 2011
  incidence of diarrhea, words: higher incidence of diarrhea

## COc1ccc(C(CN(C)C)C2(O)CCCCC2)cc1 (stereo not drawn) [venlafaxine]
[1]
  rates of gastrointestinal adverse reactions compared to placebo, words: higher rates of gastrointestinal adverse reactions
[1]; compared to SSRIs and duloxetine, Gartlehner G, et al. 2011
  rates of nausea and vomiting, words: higher rates of nausea and vomiting

## Cc1ccc(Sc2ccccc2N2CCNCC2)c(C)c1 [vortioxetine]
[1]
  rates of gastrointestinal adverse reactions compared to placebo, words: higher rates of gastrointestinal adverse reactions

## C[C@@]1(O)CC[C@H]2[C@H](CC[C@@H]3[C@@H]2CC[C@]2(C)[C@@H](C(=O)Cn4cc(C#N)cn4)CC[C@@H]32)C1 [zuranolone]
[2]
  serious TEAE assessed as related to zuranolone by the investigator: seizure-like phenomenon; also recorded: seizure-like phenomena
